Measurements from patent US7695918B2 (priority 2002, dated 2010).
Where two headings read alike, the source gives them in different places.

Assays:
PrP^sc [1] = biological target: PrP^sc (Ovis aries, UniProt P23907); assay type: binding; conditions: 2000 μg streptomycin; PrP^sc from 920 μg sheep brain afflicted with trembling; from increase of apparent molecular weight
PrP^sc [2] = conditions: precipitates, ESB bovine brain homogenate
[3] = biological target: recPrP (recombinant protein prion) (Homo sapiens, UniProt P04156); conditions: recPrP 42 μM diluted with an equivalent volume of streptomycin 1 g/ml; dried on mica
PrP^sc [4] = tested on: PrP^sc
protein prion [5] = assay type: binding, human; conditions: 50 μg/ml final concentration streptomycin; LCR(+) at any proteinase K concentration, LCR(−) only without digestion
PrP^sc [6] = assay type: binding, bovine
protein prion [7] = biological target: protein prion (Homo sapiens, UniProt P04156); assay type: binding; conditions: LCR

Chain of PrP^sc (Ovis aries, UniProt P23907) (P23907 25-233 limits assumed): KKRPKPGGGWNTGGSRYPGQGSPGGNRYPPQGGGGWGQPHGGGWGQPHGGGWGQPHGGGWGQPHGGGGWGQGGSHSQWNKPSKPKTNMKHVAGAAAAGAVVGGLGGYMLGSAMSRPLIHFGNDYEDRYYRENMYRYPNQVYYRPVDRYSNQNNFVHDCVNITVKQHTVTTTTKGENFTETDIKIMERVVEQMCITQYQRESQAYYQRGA

With `[H]/N=C(/N)N[C@H]1[C@H](O)[C@@H](O)[C@H](O[C@@H]2O[C@@H](C)[C@](O)(C=O)[C@H]2O[C@@H]2O[C@@H](CO)[C@H](O)[C@@H](O)[C@@H]2NC)[C@@H](N/C(N)=N\[H])[C@@H]1O` [streptomycin] the “number of streptomycin molecules attached per band of PrP^sc” value (PrP^sc [1]) was 10 to 12 molecules of streptomycin per band of PrP^sc, the “dilution down to which PrP^sc is detectable” value (PrP^sc [2]; 5 μl streptomycin, without streptomycin the limit is 1/16) was 1/128 and the “dilution down to which PrP^sc is detectable” value (PrP^sc [2]; 10 μl streptomycin, most diluted sample tested) was 1/256. The “surface organization of the film of the recPrP/streptomycin mixture” value [3] was “amorphous surface”, the “detection of PrP^sc compared with the reference technique” value (PrP^sc [4]) was “permits better detection of cases that are slightly positive” and the “apparent molecular mass of the band observed after streptomycin treatment” value (protein prion [5]) was “approximately 35 kDa”. For the same compound, the “precipitation of PrP^sc” value (PrP^sc [6]; 20 μl streptomycin at 1 g/ml, 100 μl bovine brain suspension after proteinase K, second hour at 37° C.) was “totally precipitated the PrP^sc”, the “location of PrP^sc bands (supernatant or bottom)” value (PrP^sc [6]; brain sample diluted 1/25, proteinase K and streptomycin added simultaneously, one hour incubation) was “in the bottom in the presence of any concentration of streptomycin” and the “apparent size of the protein prion band after streptomycin treatment” value (protein prion [7]; 0.1 g/ml streptomycin, no proteinase K digestion) was “approximately 50 kDa”. The “binding of streptomycin to the protein prion” value (protein prion [7]; absence of digestion by proteinase K, streptomycin 0.1 and 0.2 g/ml) was “bonds well to the protein prion”.
